# Entries after “also recorded” stand apart in the source; their conditions may differ.
# Tested on: PDE IV
# Assay: Cell-based PDE assay in ACTOne-IRES-A2b#2 cell line with ACTOne Membrane Potential dye, no external cAMP stimulation
# Conditions: ACTOne-IRES-A2b#2 cell line (HEK293-CNG overexpressing human adenosine A2b receptor); readings before and 30 minutes after compound addition
# Description: Before the assay, all cells are harvested when they reach 80-90% confluence or less, and they should not be overgrown. Culture medium of the transfected cells was removed and replaced with a volume of Dulbecco's Phosphate Buffers Saline without calcium and magnesium (DPBS) to adequately cover and wash the cells. The DPBS was removed and a sufficient volume of 1× trypsin-EDTA was added to just cover the cells (i.e. 1 ml for a 10 cm dish, 2 ml for a T75 flask, and 5 ml for a T150 flask). The plate was agitated to make sure the cells were equally covered with the solution. The cells were trypsinized at room temperature for about 5 min. After 5 min, the cells were examined to ensure that they were detached from the dish or flask. Gentle tapping of the dish/flask may aid in the process. Sufficient serum-containing medium were added to an appropriate volume and the medium was pipetted up and down through a serological pipette for 4 times to obtain a single cell suspension. A portion of the cells were counted with a hemocytometer. Cells are diluted in their appropriate medium at 7×10^5 cells/ml. 100 μl/well of cell suspension is added to 96-well plates or 20 μl/well is added to 384-well plates 16-24 hours before use. For cells with HEK293 background, poly-D-lysine-coated plates are recommended. Optimal assay conditions using standard fluorescence plate readers require a confluent monolayer of cells prior to the assay. The number of cells used per well will depend upon a number of conditions including the cell line and the instrument being used to make the reading. Cell plates are removed from the incubator after overnight incubation and examined under microscope. A confluent lawn of consistently spread cells is observed. An equal volume of IX Membrane Potential Dye Solution (BD Biosciences, Rockville, Md.) is then added to each well (e.g. 100 μl to 100 μl culture medium/well for 96-well plates, or 20 μl to 20 μl culture medium/well for 384-well plates). […] The cell plates are further incubated for 2 hrs at room temperature in the dark. Membrane potential assays are performed as described in the manual for ACTOne Membrane Potential Dye Kit (BD Biosciences, Rockville, Md.). Test compounds can be added on-line (some fluorescence plate readers also have fluid addition module, and therefore compound addition and fluorescence intensity reading can happen simultaneously. i.e. FLIPR and FlexStation) or off-line (other liquid handling equipments are used for compound addition). Test compounds in 1×DPBS was added to the cell plates at 50 μl/well for 96-well plates (250 μl total well volume after addition) or 10 μl/well for 384-well plates (50 μl total well volume after addition). Cell plates are loaded into a FLIPR, FLEXstation, or other fluorescence microplate reader to read fluorescence intensity before and after compound addition. The settings on FLIPR are described in the manuals from the manufacturer. For FLEXstation and other fluorescence microplate readers, wavelengths close to the maxima of absorption and emission of the dye are used: for example, 530 nm excitation, 550 auto cut-off, and 565 nm emission. […] Fluorescence intensity counts obtained before and 30 minutes after compound addition were used for data analysis. […] It has been reported that PDE4 is a dominant isozyme in HEK293 cells. In order to analyze the specificity of the PDE assay, different PDE inhibitors (Ro20-1724, Rolipram, Etazolate (PDE IV inhibitors); 8-methoxymethyl-3-isobuty-1-m (PDE I inhibitor); Zaprinast (cGMP specific PDE inhibitor); Quazinon (PDE III inhibitor); IBMX (pan PDE inhibitor)) were purchased from Sigma. They were diluted at different concentrations in 1×DPBS and the assays were performed the same as above using the ACTOne-IRES-A2b#2 cell line. Briefly, the cells were plated on 384-well PDL coated plate. The density of the cells was 14,000 cells per well. The cells were allowed to attach and grow overnight. […]
row,SMILES,"detection of PDE inhibitor activity (dose response, fluorescence intensity)"
1,CCCCOc1cc(CC2CNC(=O)N2)ccc1OC (stereo not shown) [Ro20-1724],detected
2,"COc1ccc(C2CNC(=O)C2)cc1OC1CCCC1 (stereo not shown) [Rolipram, 4-[3-(cyclopentyloxy)-4-methoxyphenyl]-2-pyrrolidinone]",detected
3,CCCOc1ccccc1-c1nc2nn[nH]c2c(=O)[nH]1 [Zaprinast],negative signals
4,"CC(C)Cn1c(=O)n(C)c(=O)c2[nH]cnc21 [IBMX, 3-Isobutyl-1-methylxanthine]",can not be detected; also recorded: negative signals
5,"CCOC(=O)c1cnc2c(cnn2CC)c1NN=C(C)C.Cl [Etazolate, 1-ethyl-4-[(1-methylethylidene)hydrazino]1H-pyrazol-o[3,4-b]pyridine-5-carboxylic acid ethyl ester hydrochloride]",detected
6,"COCc1nc2c([nH]1)c(=O)n(C)c(=O)n2CC(C)C [8-methoxymethyl-3-isobuty-1-m, 8-Methoxymethyl-3-isobutyl-1-methylxanthine]",negative signals
7,C[C@@H]1C(=O)NC2=Nc3cccc(Cl)c3CN21 [Quazinon],negative signals
